From patent publication US11959086B2, “Dual transit peptides for targeting polypeptides” (BASF AGRO B.V., priority 2016, dated 2024)

Experiments:
Assay in all cases: Herbicide injury evaluation of Arabidopsis plants, greenhouse
Type in all cases: in vivo
[1] = system: Wildtype/non-transgenic Arabidopsis thaliana; settings: scale 0-100
[2] = system: transgenic Arabidopsis thaliana, transgene SEQ ID NO 118; settings: scale 0-100
[3] = system: transgenic Arabidopsis thaliana, transgene SEQ ID NO 120; settings: Table 4, scale 0-100
[4] = system: transgenic Arabidopsis thaliana, transgene SEQ ID NO 121; settings: Table 3, scale 0-100
[5] = system: transgenic Arabidopsis thaliana, transgene SEQ ID NO 128; settings: Table 3, scale 0-100
[6] = system: transgenic Arabidopsis thaliana, transgene SEQ ID NO 117; settings: Table 3, scale 0-100

Which results are given for `CCOC(=O)COc1ncccc1Oc1cc(-n2c(=O)cc(C(F)(F)F)n(C)c2=O)c(F)cc1Cl` [S3100, ethyl [3-[2-chloro-4-fluoro-5-(1-methyl-6-trifluoromethyl-2,4-dioxo-1,2,3,4-tetrahydropyrimidin-3-yl)phenoxy]-2-pyridyloxy]acetate]?
Herbicide injury evaluation 14 days after herbicide treatment ([1]; Table 4, 50 g ai/ha + 1% MSO): 100; Herbicide injury evaluation 14 days after herbicide treatment ([1]; Table 4, 100 g ai/ha + 1% MSO): 100; Herbicide injury evaluation 14 days after herbicide treatment ([1]; Table 4, 200 g ai/ha + 1% MSO): 100; Herbicide injury evaluation 14 days after herbicide treatment ([2]; Table 4, SEQ ID NO 118 Q, 50 g ai/ha + 1% MSO): 65; Herbicide injury evaluation 14 days after herbicide treatment ([2]; Table 4, SEQ ID NO 118 Q, 100 g ai/ha + 1% MSO): 65; Herbicide injury evaluation 14 days after herbicide treatment ([2]; Table 4, SEQ ID NO 118 Q, 200 g ai/ha + 1% MSO): 65; Herbicide injury evaluation 14 days after herbicide treatment ([2]; Table 4, SEQ ID NO 118 R, 50 g ai/ha + 1% MSO): 60; Herbicide injury evaluation 14 days after herbicide treatment ([2]; Table 4, SEQ ID NO 118 R, 100 g ai/ha + 1% MSO): 63; Herbicide injury evaluation 14 days after herbicide treatment ([2]; Table 4, SEQ ID NO 118 R, 200 g ai/ha + 1% MSO): 53; Herbicide injury evaluation 14 days after herbicide treatment ([3]; SEQ ID NO 120 J, 50 g ai/ha + 1% MSO): 75; Herbicide injury evaluation 14 days after herbicide treatment ([3]; SEQ ID NO 120 J, 100 g ai/ha + 1% MSO): 95; Herbicide injury evaluation 14 days after herbicide treatment ([3]; SEQ ID NO 120 J, 200 g ai/ha + 1% MSO): 80; Herbicide injury evaluation 14 days after herbicide treatment ([3]; SEQ ID NO 120 M, 50 g ai/ha + 1% MSO): 97; Herbicide injury evaluation 14 days after herbicide treatment ([3]; SEQ ID NO 120 M, 100 g ai/ha + 1% MSO): 85; Herbicide injury evaluation 14 days after herbicide treatment ([3]; SEQ ID NO 120 M, 200 g ai/ha + 1% MSO): 89

Which results are given for `Cc1nn(-c2cc(NS(C)(=O)=O)c(Cl)cc2Cl)c(=O)n1C(F)F` [Sulfentrazone, sulfentrazone]?
Herbicide injury evaluation 14 days after herbicide treatment ([4]; SEQ ID NO 121 G, 280 g ai/ha + 1% MSO): 100; Herbicide injury evaluation 14 days after herbicide treatment ([4]; SEQ ID NO 121 G, 560 g ai/ha + 1% MSO): 100; Herbicide injury evaluation 14 days after herbicide treatment ([4]; SEQ ID NO 121 G, 1120 g ai/ha + 1% MSO): 100; Herbicide injury evaluation 14 days after herbicide treatment ([4]; SEQ ID NO 121 H, 280 g ai/ha + 1% MSO): 100; Herbicide injury evaluation 14 days after herbicide treatment ([4]; SEQ ID NO 121 H, 560 g ai/ha + 1% MSO): 100; Herbicide injury evaluation 14 days after herbicide treatment ([4]; SEQ ID NO 121 H, 1120 g ai/ha + 1% MSO): 100; Herbicide injury evaluation 14 days after herbicide treatment ([1]; Table 3, 280 g ai/ha + 1% MSO): 100; Herbicide injury evaluation 14 days after herbicide treatment ([1]; Table 3, 560 g ai/ha + 1% MSO): 100; Herbicide injury evaluation 14 days after herbicide treatment ([1]; Table 3, 1120 g ai/ha + 1% MSO): 100; Herbicide injury evaluation 14 days after herbicide treatment ([2]; Table 3, SEQ ID NO 118 Q, 280 g ai/ha + 1% MSO): 25; Herbicide injury evaluation 14 days after herbicide treatment ([2]; Table 3, SEQ ID NO 118 Q, 560 g ai/ha + 1% MSO): 40; Herbicide injury evaluation 14 days after herbicide treatment ([2]; Table 3, SEQ ID NO 118 Q, 1120 g ai/ha + 1% MSO): 48; Herbicide injury evaluation 14 days after herbicide treatment ([2]; Table 3, SEQ ID NO 118 R, 280 g ai/ha + 1% MSO): 15; Herbicide injury evaluation 14 days after herbicide treatment ([2]; Table 3, SEQ ID NO 118 R, 560 g ai/ha + 1% MSO): 18; Herbicide injury evaluation 14 days after herbicide treatment ([2]; Table 3, SEQ ID NO 118 R, 1120 g ai/ha + 1% MSO): 40; Herbicide injury evaluation 14 days after herbicide treatment ([5]; SEQ ID NO 128 D, 280 g ai/ha + 1% MSO): 73; Herbicide injury evaluation 14 days after herbicide treatment ([5]; SEQ ID NO 128 D, 560 g ai/ha + 1% MSO): 83; Herbicide injury evaluation 14 days after herbicide treatment ([5]; SEQ ID NO 128 D, 1120 g ai/ha + 1% MSO): 95; Herbicide injury evaluation 14 days after herbicide treatment ([5]; SEQ ID NO 128 E, 280 g ai/ha + 1% MSO): 70; Herbicide injury evaluation 14 days after herbicide treatment ([5]; SEQ ID NO 128 E, 560 g ai/ha + 1% MSO): 93; Herbicide injury evaluation 14 days after herbicide treatment ([5]; SEQ ID NO 128 E, 1120 g ai/ha + 1% MSO): 95; Herbicide injury evaluation 14 days after herbicide treatment ([6]; SEQ ID NO 117 C, 280 g ai/ha + 1% MSO): 83; Herbicide injury evaluation 14 days after herbicide treatment ([6]; SEQ ID NO 117 C, 560 g ai/ha + 1% MSO): 99; Herbicide injury evaluation 14 days after herbicide treatment ([6]; SEQ ID NO 117 C, 1120 g ai/ha + 1% MSO): 98; Herbicide injury evaluation 14 days after herbicide treatment ([6]; SEQ ID NO 117 I, 280 g ai/ha + 1% MSO): 89; Herbicide injury evaluation 14 days after herbicide treatment ([6]; SEQ ID NO 117 I, 560 g ai/ha + 1% MSO): 85; Herbicide injury evaluation 14 days after herbicide treatment ([6]; SEQ ID NO 117 I, 1120 g ai/ha + 1% MSO): 98
